Laboratory results taken from patent US20220306630A1, “AGONISTS OF ROR GAMMAt” (BRISTOL-MYERS SQUIBB COMPANY, priority 2019, published 2022).

The compounds below were run against T1, RORgT (Homo sapiens, UniProt P51449) (assay: RORgT Gal4 Luciferase Reporter Gene Assay). Details: RORg_GAL4 EC50 (nM), engineered Jurkat cells overexpressing RORgT (LBD or full length) with Gal4 Luc reporter; 18 hours at 37° C.; 40 μM to 0.67 nM.
T1 construct: Gal4 (fusion partner); expressed in transfected cells; host or cells: engineered Jurkat cells (Jurkat pEx/Gal/hRORγ CLBD/HYG pG5luc/blast)
T1 sequence (P51449 267-516): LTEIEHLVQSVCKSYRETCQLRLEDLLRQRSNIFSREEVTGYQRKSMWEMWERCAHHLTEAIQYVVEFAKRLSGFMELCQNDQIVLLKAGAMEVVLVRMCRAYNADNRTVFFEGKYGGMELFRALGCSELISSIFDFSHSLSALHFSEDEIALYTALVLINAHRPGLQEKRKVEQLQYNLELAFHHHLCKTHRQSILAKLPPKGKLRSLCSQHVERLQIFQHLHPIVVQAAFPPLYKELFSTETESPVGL
Assay type: cell-based
Procedure, shortened: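 Cells exposed to compound 18 hours at 37° C, then lysed for luciferase luminescence. Inhibition of constitutive activity expressed as percent reduction of signal window relative to a control compound.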

SMILES | EC50 [nM]
CC(C)c1cc(F)cc(Oc2c(Cl)ccc(C(=O)N3CCN(S(C)(=O)=O)CC3)c2Cl)c1 [Example 263] | 105

Same assay, conditions: engineered Jurkat cells overexpressing RORgT (LBD or full length) with Gal4 Luc reporter; 18 hours at 37° C.; 40 μM to 0.67 nM; read-out: RORg_GAL4 EC50

SMILES | EC50 [nM]
COc1ccc(Oc2c(Cl)cc(NC(=O)Cc3ccnc(S(C)(=O)=O)c3)cc2Cl)cc1C(C)C [Example 241] | 64
COc1ccc(Oc2c(Cl)cc(NC(=O)Cc3cncc(S(C)(=O)=O)c3)cc2Cl)cc1C(C)C [Example 242] | 40
COc1ccc(Oc2c(Cl)cc(NC(=O)Cc3cnc(S(C)(=O)=O)cn3)cc2Cl)cc1C(C)C [Example 243] | 1280
COc1ccc(Oc2c(Cl)cc(NC(=O)Cc3cccc(S(N)(=O)=O)c3)cc2Cl)cc1C(C)C [Example 244] | 37
COc1ccc(Oc2c(Cl)cc(NC(=O)CCn3cncn3)cc2Cl)cc1C(C)C [Example 245] | 1560
COc1ccc(Oc2c(Cl)cc(NC(=O)Cc3cnn(C)c3)cc2Cl)cc1C(C)C [Example 246] | 123
COc1ccc(Oc2c(Cl)cc(NC(=O)C(O)c3cccnc3)cc2Cl)cc1C(C)C (centres unmarked) [Example 247] | 114
COc1ccc(Oc2c(Cl)cc(NC(=O)Cc3cncn3C)cc2Cl)cc1C(C)C [Example 248] | 2250
COc1ccc(Oc2c(Cl)cc(NC(=O)CCc3c(C)n[nH]c3C)cc2Cl)cc1C(C)C [Example 249] | 1640
COc1ccc(Oc2c(Cl)cc(NC(=O)Cc3cnc[nH]3)cc2Cl)cc1C(C)C [Example 250] | 500
COC(=O)NCC1CN(c2cc(Cl)c(Oc3ccc(OC)c(C(C)C)c3)c(Cl)c2)C(=O)O1 (centres unmarked) [Example 251] | 433
COc1ccc(Oc2c(Cl)cc(NC(=O)CCn3ccc(S(C)(=O)=O)n3)cc2Cl)cc1C(C)C [Example 252] | 264
COc1ccc(Oc2c(Cl)cc(N3CC(CNC(=O)CS(C)(=O)=O)OC3=O)cc2Cl)cc1C(C)C (centres unmarked) [Example 253] | 477
COc1ccc(Oc2c(Cl)cc(N3CC(CNS(C)(=O)=O)OC3=O)cc2Cl)cc1C(C)C (centres unmarked) [Example 254] | 655
COc1ccc(Oc2c(Cl)cc(NC(=O)CC3CCN(S(C)(=O)=O)CC3)cc2Cl)cc1C(C)(C)C [Example 255] | 19
COc1ccc(Oc2c(Cl)cc(NC(=O)Cc3cnn(S(C)(=O)=O)c3)cc2Cl)cc1C(C)(C)C [Example 256] | 153
CC(C)c1cc(F)cc(Oc2c(Cl)cc(NC(=O)CC3CCN(S(C)(=O)=O)CC3)cc2Cl)c1 [Example 258] | 19
CC(C)c1cc(Oc2c(Cl)cc(NC(=O)Cc3cccnc3)cc2Cl)ccc1OC(F)(F)F [Example 259] | 356
CC(C)c1cc(Oc2c(Cl)cc(NC(=O)CC3CCN(S(C)(=O)=O)CC3)cc2Cl)ccc1OC(F)(F)F [Example 260] | 102
CC(C)c1cc(F)cc(Oc2c(Cl)ccc(C(=O)NCC3CCN(S(C)(=O)=O)CC3)c2Cl)c1 [Example 261] | 14
CC(C)c1cc(F)cc(Oc2c(Cl)ccc(C(=O)N3CCC(S(C)(=O)=O)CC3)c2Cl)c1 [Example 264] | 39
CC(C)c1cc(Oc2c(Cl)cc(NC(=O)Cc3cccnc3)cc2Cl)ccc1Cl [Example 265] | 204
CC(C)c1cc(Oc2c(Cl)cc(NC(=O)CC3CCN(S(C)(=O)=O)CC3)cc2Cl)ccc1F [Example 266] | 11
COc1ncc(Oc2c(Cl)cc(NC(=O)CN3CC(NS(C)(=O)=O)C3)cc2Cl)cc1C(C)C [Example 267] | 373
COc1ncc(Oc2c(Cl)cc(NC(=O)CN3CCC(S(C)(=O)=O)CC3)cc2Cl)cc1C(C)C [Example 268] | 40
C=C(C)c1cc(Oc2c(Cl)cc(NC(=O)CC3CCN(S(C)(=O)=O)CC3)cc2Cl)ccc1Cl [Example 269] | 185
CC(C)c1cc(F)cc(Oc2c(Cl)cc(NC(=O)CC3CCN(S(N)(=O)=O)CC3)cc2Cl)c1 [Example 270] | 22
CS(=O)(=O)N1CCN(CC(=O)Nc2cc(Cl)c(Oc3ccc(F)c(C4CC4)c3)c(Cl)c2)CC1 [Example 271] | 78

SMILES | EC50 [nM]
CC(=O)NC[C@H]1CN(c2cc(Cl)c(Oc3cc(F)cc(C(C)C)c3)c(Cl)c2)C(=O)O1 [Example 272] | 260
CC1(c2cc(F)cc(Oc3c(Cl)cc(NC(=O)Cc4cccc(S(C)(=O)=O)c4)cc3Cl)c2)CC1 [Example 273] | 1.1
CC1(c2cc(F)cc(Oc3c(Cl)cc(NC(=O)Cc4ccc(S(C)(=O)=O)cc4)cc3Cl)c2)CC1 [Example 274] | 3.9
CC1(c2cc(F)cc(Oc3c(Cl)cc(NC(=O)CC4CCN(C(=O)C(F)(F)F)CC4)cc3Cl)c2)CC1 [Example 275] | 12
CC1(c2cc(F)cc(Oc3c(Cl)ccc(C(=O)NCc4ccc(S(C)(=O)=O)cc4)c3Cl)c2)CC1 [Example 276] | 5.1
CC1(c2cc(F)cc(Oc3c(Cl)ccc(C(=O)N4CCC5(CC4)CN(S(C)(=O)=O)C5)c3Cl)c2)CC1 [Example 277] | 5.6
CC1(c2cc(F)cc(Oc3c(Cl)ccc(C(=O)NCc4ccc(S(N)(=O)=O)cc4)c3Cl)c2)CC1 [Example 278] | 1.7
COc1ccc(Oc2c(Cl)cc(NC(=O)CN(C)C)cc2Cl)cc1C(C)C [Example 280] | 656
COc1ccc(Oc2c(Cl)cc(NC(=O)CCC(N)=O)cc2Cl)cc1C(C)C [Example 281] | 375
COc1ccc(Oc2c(Cl)cc(NC(=O)CCCS(N)(=O)=O)cc2Cl)cc1C(C)C [Example 282] | 264
COc1ccc(Oc2c(Cl)cc(NC(=O)CCc3ccccc3)cc2Cl)cc1C(C)C [Example 284] | 40000
COc1ccc(Oc2c(Cl)cc(NC(=O)CCCc3ccccc3)cc2Cl)cc1C(C)C [Example 285] | 284
COc1ccc(Oc2c(Cl)cc(NC(=O)Cc3cnccn3)cc2Cl)cc1C(C)C [Example 286] | 316
COc1ccc(Oc2c(Cl)cc(NC(=O)C3CCCCC3)cc2Cl)cc1C(C)C [Example 287] | 132
COC(=O)c1cccc(C(=O)Nc2cc(Cl)c(Oc3ccc(OC)c(C(C)C)c3)c(Cl)c2)c1 [Example 288] | 1270
COc1ccc(Oc2c(Cl)cc(NC(=O)c3cccc(S(C)(=O)=O)c3)cc2Cl)cc1C(C)C [Example 289] | 1480
COc1ccc(Oc2c(Cl)cc(NC(=O)CCC(C)C)cc2Cl)cc1C(C)C [Example 290] | 524
COc1ccc(Oc2c(Cl)cc(NC(=O)CCN3CCCC3=O)cc2Cl)cc1C(C)C [Example 291] | 134
COc1ccc(Oc2c(Cl)cc(NC(=O)C3CC3)cc2Cl)cc1C(C)C [Example 292] | 940
COc1ccc(Oc2c(Cl)cc(NC(=O)c3ccc(S(C)(=O)=O)cc3)cc2Cl)cc1C(C)C [Example 293] | 3270
COc1ccc(Oc2c(Cl)cc(NC(=O)c3cnccn3)cc2Cl)cc1C(C)C [Example 294] | 4520
COC(=O)CCC(=O)Nc1cc(Cl)c(Oc2ccc(OC)c(C(C)C)c2)c(Cl)c1 [Example 295] | 308
COc1ccc(Oc2c(Cl)cc(NC(=O)CCN3CCOCC3)cc2Cl)cc1C(C)C [Example 296] | 1010
COc1ccc(Oc2c(Cl)cc(NC(=O)CCn3ccnc3)cc2Cl)cc1C(C)C [Example 297] | 44
COc1ccc(Oc2c(Cl)cc(NC(=O)CCCN3CCOCC3)cc2Cl)cc1C(C)C [Example 298] | 727
COc1ccc(Oc2c(Cl)cc(NC(=O)c3ccccc3)cc2Cl)cc1C(C)C [Example 299] | 20000
COCCC(=O)Nc1cc(Cl)c(Oc2ccc(OC)c(C(C)C)c2)c(Cl)c1 [Example 300] | 591
